Data: ChEMBL document CHEMBL6115005, “New phenylpiperazine-thiazolidine-2,4-dione hybrids targeting MAO inhibition: Synthesis, biological evaluation, kinetic study and in silico insights” (Bioorg Med Chem, 2025)

Columns and labels:
Homo sapiens = organism: Homo sapiens; assay: Selectivity index, ratio of IC50 for inhibition of human MAO-B using benzylamine as substrate to IC50 for inhibition of human MAO-A using kynuramine as substrate
[1] = target: T1, Amine oxidase [flavin-containing] B (Homo sapiens, UniProt P27338); assay: Inhibition of human MAO-B using benzylamine as substrate by fluorometric assay
T1 sequence (P27338 whole entry): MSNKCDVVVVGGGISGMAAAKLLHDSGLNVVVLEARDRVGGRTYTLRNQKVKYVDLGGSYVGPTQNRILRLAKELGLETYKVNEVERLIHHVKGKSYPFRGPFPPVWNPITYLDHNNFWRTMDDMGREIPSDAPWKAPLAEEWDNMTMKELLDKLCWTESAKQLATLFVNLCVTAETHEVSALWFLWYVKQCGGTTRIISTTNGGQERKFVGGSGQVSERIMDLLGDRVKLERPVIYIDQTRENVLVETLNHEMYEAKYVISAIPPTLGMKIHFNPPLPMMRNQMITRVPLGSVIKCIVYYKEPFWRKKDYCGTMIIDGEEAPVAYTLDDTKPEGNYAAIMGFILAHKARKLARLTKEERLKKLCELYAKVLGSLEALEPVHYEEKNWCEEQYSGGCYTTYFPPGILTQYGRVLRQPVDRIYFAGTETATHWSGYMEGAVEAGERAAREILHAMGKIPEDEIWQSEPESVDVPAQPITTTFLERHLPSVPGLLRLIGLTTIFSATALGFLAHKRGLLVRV

[2] = target: T2, Amine oxidase [flavin-containing] A (Homo sapiens, UniProt P21397); assay: Inhibition of human MAO-A using kynuramine as substrate by fluorometric assay
T2 sequence (P21397 whole entry): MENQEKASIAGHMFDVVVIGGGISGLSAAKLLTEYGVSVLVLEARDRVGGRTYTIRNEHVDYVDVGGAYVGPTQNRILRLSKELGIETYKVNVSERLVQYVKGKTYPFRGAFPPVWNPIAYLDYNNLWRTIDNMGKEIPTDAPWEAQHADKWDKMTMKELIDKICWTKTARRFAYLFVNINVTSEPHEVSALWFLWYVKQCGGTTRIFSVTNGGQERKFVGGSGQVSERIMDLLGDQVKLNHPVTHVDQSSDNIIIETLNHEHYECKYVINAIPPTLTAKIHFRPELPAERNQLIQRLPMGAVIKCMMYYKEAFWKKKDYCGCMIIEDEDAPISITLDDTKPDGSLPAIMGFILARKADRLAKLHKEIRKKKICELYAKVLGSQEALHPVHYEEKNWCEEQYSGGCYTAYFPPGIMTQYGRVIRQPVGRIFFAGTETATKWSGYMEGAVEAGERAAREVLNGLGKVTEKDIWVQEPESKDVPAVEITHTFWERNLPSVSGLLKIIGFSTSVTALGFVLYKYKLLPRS

[3] = target: T1, Amine oxidase [flavin-containing] B; assay: Inhibition of MAO-B (unknown origin)
PC-12 = assay: Neuroprotective activity against rotenone-induced cytotoxicity in rat PC12 cells assessed as increase in cell viability at 16 microg/ml by MTT assay; assay type: functional; details: dose 16 µg/ml
SH-SY5Y = assay: Cytotoxicity against human SH-SY5Y cells by MTT assay; assay type: functional, cell-based
[4] = target: T2, Amine oxidase [flavin-containing] A; assay: Mixed type inhibition of human MAO-A by lineweaver-burk plot analysis
[5] = target: T2, Amine oxidase [flavin-containing] A; assay: Inhibition of MAO-A (unknown origin)

| Compound | Ratio IC50 (Homo sapiens) | IC50 [1] [nM] | IC50 [2] [nM] | further results |
| --- | --- | --- | --- | --- |
| C=CCN1C(=O)S/C(=C\c2ccc(N3CCN(c4ccccc4OCC)CC3)cc2)C1=O | 6.87 | 5580 | 812 |  |
| C#CCN1C(=O)S/C(=C\c2ccc(N3CCN(c4ccc(F)cc4)CC3)cc2)C1=O | 3.57 | 1360 | 381 |  |
| CC(C)(C)c1ccc(S(=O)(=O)c2ccc(N3CCN(C(c4ccccc4)c4ccccc4)CC3)cc2)cc1 |  |  |  | IC50 [3]: 610 nM |
| O=C1S/C(=C\c2ccc(N3CCN(c4ccc(F)cc4)CC3)cc2)C(=O)N1Cc1ccccc1 |  | 479 | 188 | Activity (PC-12): 73.16%; IC50 (SH-SY5Y): 94600 nM; Ki [4]: 3.4 nM |
| C=CCN1C(=O)S/C(=C\c2ccc(N3CCN(c4ccc(F)cc4)CC3)cc2)C1=O | 0.22 | 330 | 1480 |  |
| C#CCN1C(=O)S/C(=C\c2ccc(N3CCN(C4CCCCC4)CC3)cc2)C1=O | 0.49 | 705 | 1430 |  |
| OCc1ccc(N2CCN(c3cccc(Cl)c3)CC2)cc1 |  |  |  | IC50 [5]: 90 nM |
| O=C1NC(=O)/C(=C/c2ccc(N3CCN(C4CCCCC4)CC3)cc2)S1 | 2.85 | 8980 | 3150 |  |
| C#CCN1C(=O)S/C(=C\c2ccc(N3CCN(c4ccccc4)CC3)cc2)C1=O | 2.02 | 3010 | 1490 |  |
| O=C1S/C(=C\c2ccc(N3CCN(c4ccccc4)CC3)cc2)C(=O)N1Cc1ccccc1 | 3.36 | 652 | 194 |  |
| C#CCN1C(=O)S/C(=C\c2ccc(N3CCN(c4ccccc4OCC)CC3)cc2)C1=O | 7.96 | 1740 | 218 |  |
| O=C1NC(=O)/C(=C/c2ccc(N3CCN(c4ccc(F)cc4)CC3)cc2)S1 | 2.83 | 7130 | 2520 |  |
| O=C1S/C(=C\c2ccc(N3CCN(C4CCCCC4)CC3)cc2)C(=O)N1Cc1ccccc1 | 5.28 | 2740 | 518 |  |
| CN1CCN(c2ccc(/C=N/Nc3nc(-c4ccc([N+](=O)[O-])cc4)cs3)cc2)CC1 |  |  |  | IC50 [5]: 57 nM |
| C=CCN1C(=O)S/C(=C\c2ccc(N3CCN(C4CCCCC4)CC3)cc2)C1=O | > 5.79 | > 10000 | 1730 |  |
| C=CCN1C(=O)S/C(=C\c2ccc(N3CCN(c4ccccc4)CC3)cc2)C1=O | > 2.66 | > 10000 | 5700 |  |
| COc1ccc(N2CCN(Cc3nnc(SCC(=O)c4ccc(Cl)cc4)n3C)CC2)cc1 |  |  |  | IC50 [3]: 70 nM; IC50 [5]: 70 nM |
| CCOc1ccccc1N1CCN(c2ccc(/C=C3\SC(=O)NC3=O)cc2)CC1 | 2 | 2730 | 1360 |  |
| O=C1NC(=O)/C(=C/c2ccc(N3CCN(c4ccccc4)CC3)cc2)S1 | 16.6 | 6730 | 405 |  |
| CCOc1ccccc1N1CCN(c2ccc(/C=C3\SC(=O)N(Cc4ccccc4)C3=O)cc2)CC1 | 2.11 | 1060 | 502 |  |
| C#CCN[C@@H]1CCc2ccccc21 [RASAGILINE] |  |  |  | Activity (PC-12): 69.75% |
